Some results are limits rather than exact numbers.

For this assay, the target named is human LPAR1 (Homo sapiens, UniProt Q92633). The experiment in a line: LPAR1 intracellular calcium mobilization assay (antagonist mode, FLIPR). The format is cell-based. The conditions noted are these: CHO-K1 EDG2 cells expressing human LPAR1; test compound 0.5 nM to 10 μM pre-incubated 60 minutes at 37° C., then LPA 18:2 at EC80 concentration (100 nM). The protocol: In vitro LPAR1 activity was measured in an intracellular calcium mobilization assay. CHO-K1 EDG2 cells (DiscoverX cat #93-0644C2) expressing human LPAR1 (NM_001401.3) were seeded in a total volume of 25 μL of Dulbecco's Modification of Eagle's Medium (DMEM) with 10% Fetal Bovine Serum, 1× PenStrepGlutamine, 300 μg/ml Hygromycin, and 800 μg/ml G418 into 384-well tissue culture plate (Grenier #781091) at 15,000 cells/well and incubated at 37° C. overnight. Prior to testing, 25 μL Calcium Loading Dye Component A (FLIPR Calcium 6 Assay Kit Molecular Device # R8190) and 2.5 mM Probenecid (Invitrogen # P36400, prepared fresh) in Hank's Balanced Salt Solution (Corning #21-023-CV), 20 mM HEPES (Corning #25-060-CI), 0.1% Bovine Serum Albumin (Sigma-Aldrich # A7906-500G) was add to the cells for 60 minutes at 37° C.
Chain of human LPAR1 (Q92633 whole entry): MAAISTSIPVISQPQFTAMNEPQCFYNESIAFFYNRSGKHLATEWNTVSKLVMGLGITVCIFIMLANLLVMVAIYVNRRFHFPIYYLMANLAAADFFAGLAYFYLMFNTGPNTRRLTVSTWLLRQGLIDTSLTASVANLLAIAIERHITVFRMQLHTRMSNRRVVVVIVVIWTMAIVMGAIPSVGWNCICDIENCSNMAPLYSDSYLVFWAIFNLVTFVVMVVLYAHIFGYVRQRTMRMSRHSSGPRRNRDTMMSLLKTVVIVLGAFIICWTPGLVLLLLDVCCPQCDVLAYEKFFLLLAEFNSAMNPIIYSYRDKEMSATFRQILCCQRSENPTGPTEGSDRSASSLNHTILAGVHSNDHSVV
Agonist dose curves of LPA 18:2 (Avanti Polar Lipids cat #857138, 0.5 nM to 10 μM) were recorded to determine the LPA 18:2 EC80 for subsequent antagonist assays. For agonist dose curves, cells were removed from the incubator 2 hours after dye loading and transferred to the FLIPR Tetra instrument (Molecular Devices, San Jose, CA). Calcium mobilization was monitored for 5 min and 10 μL 6×LPA in HBSS/20 mM Hepes/0.1% bovine serum albumin (BSA) was added to the cells 5 seconds into the assay.
To determine the LPAR1 antagonist activity of test compounds, cells were pre-incubated with test compound at a dose range of 0.5 nM to 10 μM, followed by LPA at EC80 concentration (100 nM). After dye loading, cells were removed from the incubator and 0.3 μL of 200× antagonist was added. Cells were incubated for 60 minutes at 37° C. Antagonist activity was measured on a FLIPR Tetra. Calcium mobilization was monitored for 3.5 minutes and 10 μL 6×EC80 LPA in HBSS, 20 mM HEPES, and 0.1% BSA was added to the cells 5 seconds into the assay. Signal amplitude (Maximum minus minimum) values were plotted against log10 of antagonist concentration using Dose Response Tool (Gilead Sciences Inc.) to determine […].
To assess the antagonistic potential of exemplified compounds […] were determined for Compounds 1 to 66 in the LPAR1 calcium mobilization assay. The compound numbers correspond to the compound numbers in Examples 1 to 18. N/A=not available.
In general terms: A change in cytosolic calcium serves as a functional read-out for many receptors and channels.
`C[C@@H](OC(=O)Nc1c(-c2ccc(C(=O)Nc3cnc(C(F)(F)F)nc3)cn2)nnn1C)c1cc(F)cnc1F` [Compound 24, (R)-1-(2,5-difluoro-pyridin-3-yl)ethyl (1-methyl-4-(5-((2-(trifluorometh-yl)pyrimidin-5-yl)-carbamoyl)pyridin-2-yl)-1H-1,2,3-triazol-5-yl)-carbamate]: the concentration giving a half-maximal response (EC50) amounted to 222 nM. On to `C[C@@H](OC(=O)Nc1c(-c2ccc(C(=O)Nc3ccc(C(F)(F)F)nc3)cn2)nnn1C)c1cc(F)cnc1F` [Compound 25, (R)-1-(2,5-difluoro-pyridin-3-yl)ethyl (1-methyl-4-(5-((6-(trifluoromethyl)-pyridin-3-yl)-carbamoyl)pyridin-2-yl)-1H-1,2,3-triazol-5-yl)-carbamate], for which the EC50 was determined as 364 nM. `C[C@@H](OC(=O)Nc1c(-c2ccc(C(=O)NC34CC(c5ccccc5)(C3)C4)cn2)nnn1C)c1cc(F)cnc1F` [Compound 26]: the EC50 was less than 4.6 nM. For the compound `C[C@@H](OC(=O)Nc1c(-c2ccc(C(=O)Nc3ccnc(F)c3)cn2)nnn1C)c1cc(F)cnc1F` [Compound 27, (R)-1-(2,5-difluoro-pyridin-3-yl)ethyl (4-(5-((2-fluoro-pyridin-4-yl)-carbamoyl)pyridin-2-yl)-1-methyl-1H-1,2,3-triazol-5-yl)-carbamate], the EC50 worked out at 42.8 nM. Under `C[C@@H](OC(=O)Nc1c(-c2ccc(C(=O)Nc3ccc(C4CC4)nc3)cn2)nnn1C)c1cc(F)cnc1F` [Compound 28, (R)-1-(2,5-difluoro-pyridin-3-yl)ethyl (4-(5-((6-cyclo-propylpyridin-3-yl)carbamoyl)-pyridin-2-yl)-1-methyl-1H-1,2,3-triazol-5-yl)-carbamate] stands 427 nM; under `C[C@@H](OC(=O)Nc1c(-c2ccc(C(=O)NC34CC(S(C)(=O)=O)(C3)C4)cn2)nnn1C)c1cc(F)cnc1F` [Compound 29, (R)-1-(2,5-difluoro-pyridin-3-yl)ethyl (1-methyl-4-(5-((3-(methylsulfon-yl)bicyclo[1.1.1]-pentan-1-yl)carbam-oyl)pyridin-2-yl)-1H-1,2,3-triazol-5-yl)carbamate], 3420 nM; under `C[C@@H](OC(=O)Nc1c(-c2ccc(C(=O)Nc3cccc(C(F)(F)F)c3)cn2)nnn1C)c1cc(F)cnc1F` [Compound 30, (R)-1-(2,5-difluoro-pyridin-3-yl)ethyl (1-methyl-4-(5-((3-(trifluoromethyl)-phenyl)carbam-oyl)pyridin-2-yl)-1H-1,2,3-triazol-5-yl)carbamate], 93 nM. As to `C[C@@H](OC(=O)Nc1c(-c2ccc(C(=O)Nc3ccnc(C(F)F)c3)cn2)nnn1C)c1cc(F)cnc1F` [Compound 31, (R)-1-(2,5-difluoro-pyridin-3-yl)ethyl (4-(5-((2-(difluoro-methyl)pyridin-4-yl)carbamoyl)-pyridin-2-yl)-1-methyl-1H-1,2,3-triazol-5-yl)-carbamate], the EC50 stood at 14.9 nM. Consider `COc1cc(NC(=O)c2ccc(-c3nnn(C)c3NC(=O)O[C@H](C)c3cc(F)cnc3F)nc2)ccn1` [Compound 32, (R)-1-(2,5-difluoro-pyridin-3-yl)ethyl (4-(5-((2-methoxy-pyridin-4-yl)-carbamoyl)pyridin-2-yl)-1-methyl-1H-1,2,3-triazol-5-yl)-carbamate], for which the EC50 was determined as 55.9 nM. `C[C@@H](OC(=O)Nc1c(-c2ccc(C(=O)Nc3ccnc(OC(F)F)c3)cn2)nnn1C)c1cc(F)cnc1F` [Compound 33, (R)-1-(2,5-difluoro-pyridin-3-yl)ethyl (4-(5-((2-(difluoro-methoxy)pyridin-4-yl)carbamoyl)-pyridin-2-yl)-1-methyl-1H-1,2,3-triazol-5-yl)-carbamate]: the EC50 amounted to 273 nM. `C[C@@H](OC(=O)Nc1c(-c2ccc(C(=O)Nc3ccc(C#N)c(C(F)(F)F)c3)cn2)nnn1C)c1cc(F)cnc1F` [Compound 34, (R)-1-(2,5-difluoro-pyridin-3-yl)ethyl (4-(5-((4-cyano-3-(trifluoromethyl)-phenyl)carbamoyl)-pyridin-2-yl)-1-methyl-1H-1,2,3-triazol-5-yl)-carbamate]: the EC50 turned out to be 47.5 nM.

As for `C[C@@H](OC(=O)Nc1c(-c2ccc(C(=O)Nc3ccnc(Cl)c3F)cn2)nnn1C)c1cc(F)cnc1F` [Compound 35, (R)-1-(2,5-difluoro-pyridin-3-yl)ethyl (4-(5-((2-chloro-3-fluoropyridin-4-yl)-carbamoyl)-pyridin-2-yl)-1-methyl-1H-1,2,3-triazol-5-yl)-carbamate], the EC50 is 140 nM.

As to `C[C@@H](OC(=O)Nc1c(-c2ccc(C(=O)Nc3ccc(-c4ccccc4)cc3)cn2)nnn1C)c1cc(F)cnc1F` [Compound 36, (R)-1-(2,5-difluoro-pyridin-3-yl)ethyl (4-(5-([1,1′-biphen-yl]-4-ylcarbamoyl)-pyridin-2-yl)-1-methyl-1H-1,2,3-triazol-5-yl)-carbamate], the EC50 came to 15.6 nM.

For the compound `C[C@@H](OC(=O)Nc1c(-c2ccc(C(=O)N[C@@H]3C[C@H]3c3ccccc3)cn2)nnn1C)c1cc(F)cnc1F` [Compound 37, (R)-1-(2,5-difluoro-pyridin-3-yl)ethyl (1-methyl-4-(5-(((1R,2S)-2-phenyl-cyclopropyl)carbam-oyl)pyridin-2-yl)-1H-1,2,3-triazol-5-yl)carbamate], the EC50 was 196 nM. The same measure for `C[C@@H](OC(=O)Nc1c(-c2ccc(C(=O)Nc3cnnc(Cl)c3)cn2)nnn1C)c1cc(F)cnc1F` [Compound 38, (R)-1-(2,5-difluoro-pyridin-3-yl)ethyl (4-(5-((6-chloro-pyridazin-4-yl)-carbamoyl)pyridin-2-yl)-1-methyl-1H-1,2,3-triazol-5-yl)-carbamate]: 24.4 nM; for `Cc1nnc(-c2ccc(NC(=O)c3ccc(-c4nnn(C)c4NC(=O)O[C@H](C)c4cc(F)cnc4F)nc3)cc2)o1` [Compound 39, (R)-1-(2,5-difluoro-pyridin-3-yl)ethyl (1-methyl-4-(5-((4-(5-methyl-1,3,4-oxadiazol-2-yl)phenyl)-carbamoyl)-pyridin-2-yl)-1H-1,2,3-triazol-5-yl)carbamate]: 9.1 nM.

As for `C[C@@H](OC(=O)Nc1c(-c2ccc(C(=O)Nc3ccc(-c4cccnc4)cc3)cn2)nnn1C)c1cc(F)cnc1F` [Compound 40, (R)-1-(2,5-difluoro-pyridin-3-yl)ethyl (1-methyl-4-(5-((4-(pyridin-3-yl)phenyl)carbam-oyl)pyridin-2-yl)-1H-1,2,3-triazol-5-yl)carbamate], the EC50 was determined as 7.6 nM.

Regarding `C[C@@H](OC(=O)Nc1c(-c2ccc(C(=O)Nc3ccc(-c4ccncc4)cc3)cn2)nnn1C)c1cc(F)cnc1F` [Compound 41, (R)-1-(2,5-difluoro-pyridin-3-yl)ethyl (1-methyl-4-(5-((4-(pyridin-4-yl)phenyl)carbam-oyl)pyridin-2-yl)-1H-1,2,3-triazol-5-yl)carbamate], the EC50 is 61 nM.

`C[C@@H](OC(=O)Nc1c(-c2ccc(C(=O)Nc3cnc(C(F)(F)F)s3)cn2)nnn1C)c1cc(F)cnc1F` [Compound 42, (R)-1-(2,5-difluoro-pyridin-3-yl)ethyl (1-methyl-4-(5-((2-(trifluoromethyl)-thiazol-5-yl)-carbamoyl)pyridin-2-yl)-1H-1,2,3-triazol-5-yl)-carbamate]: the concentration for a half-maximal effect (EC50) came out at 10.1 nM.

A word on the EC50: it is the midpoint of the concentration-response curve.

The values above are taken from patent publication US12503454B2, “LPA receptor antagonists and uses thereof” (Gilead Sciences, Inc., priority 2021, dated 2025).
